Marks after values point to notes of the source that are not given here. Where a SMILES comes first, the peptide text is derived from it. [ ]: non-standard residue; d: D form. NMePhe(β,β-Me2) = CN[C@H](C(=O)O)C(C)(C)c1ccccc1; Tle = CC(C)(C)[C@H](N)C(=O)O; NMeV = CN[C@H](C(=O)O)C(C)C
Experiments:
[1] = tested on: bovine microtubule-associated protein (MAP)-rich tubulin; assay type: biochemical
Protocol: Tubulin Polymerization Assays. For in vitro tubulin polymerization assays, bovine microtubule-associated protein (MAP)-rich tubulin, PEM buffer [80 mM Na-PIPES (pH 6.9), 1 mM MgCl2, and 1 mM EGTA], and GTP are purchased from Cytoskeleton (Denver, Colo.). MAP-rich tubulin (final concentration 1.5 mg/ml) is dissolved in cold PEM buffer containing 1 mM GTP (GPEM) and centrifuged at 12,000×g for 10 min at 4° C. The tubulin solution (100 μl/well) is added rapidly to wells of a low-volume, 96-well plate already containing duplicate aliquots (10 μl) of test compounds in GPEM. […] Control wells contained the same final concentration of DMSO (0.3%). After initiation of the reaction, absorbance at 340 nm is measured every minute for 60 min at 24° C. using a SpectraMax Plus plate reader (Molecular Devices, Sunnyvale, Calif.).

KB85 = experiment: cells; assay type: cell-based; settings: for IC50: 3 days, SRB; for inhibition at 3 µM: 3000 nM
Protocol: (§1) Cell Survival Assay: Standard Pharmacological Test Procedure. […] Compounds are incubated with cells for 3 days.

KB cells = experiment: cells; assay type: cell-based; settings: for IC50: 3 days, SRB; for inhibition at 3 µM: 3000 nM
Protocol: as §1

KBV1 = experiment: cells; assay type: cell-based; settings: for IC50: 3 days, SRB; for inhibition at 3 µM: KB-V1, 3000 nM
Protocol: as §1

CN[C@H](C(=O)N[C@H](C(=O)N(C)[C@H](/C=C(\C)C(=O)c1ccccc1)C(C)C)C(C)(C)C)C(C)(C)c1ccccc1 [Example 80, N,β,β-trimethyl-L-phenylalanyl-N-1-[(1S,2E)-1-isopropyl-3-methyl-4-oxo-4-phenylbut-2-enyl]-N-1,3-dimethyl-L-valinamide]
Tubulin Polym. % inhibition at 0.3 uM [1]: 70%
IC50 (KB85): 1330 nM
IC50 (KB cells): 725 nM
IC50 (KBV1): 1800 nM

CN[C@H](C(=O)N[C@H](C(=O)N(C)[C@H](/C=C(\C)P(=O)(O)O)C(C)C)C(C)(C)C)C(C)(C)c1ccccc1 [Example 72, N,β,β-trimethyl-L-phenylalanyl-N^1-[(1S,2E)-1-isopropyl-3-phosphonobut-2-enyl]-N^1,3-dimethyl-L-valinamide]
Tubulin Polym. % inhibition at 0.3 uM [1]: 53%
inhibition at 3 µM (KB85): 0%
inhibition at 3 µM (KB cells; Homo sapiens, 72 h): 0%
inhibition at 3 µM (KBV1; Homo sapiens): 4%

CN[C@H](C(=O)N[C@H](C(=O)N(C)[C@H](/C=C(\C)C(C)O)C(C)C)C(C)(C)C)C(C)(C)c1ccccc1 (stereo partly drawn) [Example 78, N,β,β-trimethyl-L-phenylalanyl-N-1-[(1S,2E)-4-hydroxy-1-isopropyl-3-methylpent-2-enyl]-N-1,3-dimethyl-L-valinamide]
Tubulin Polym. % inhibition at 0.3 uM [1]: 75%
IC50 (KB85): 172 nM
IC50 (KB cells): 63 nM
IC50 (KBV1): 1460 nM

CN[C@H](C(=O)N[C@H](C(=O)N(C)[C@H](/C=C(\C)C(=O)NCc1ccc(-c2ccccc2)cc1)C(C)C)C(C)(C)C)C(C)(C)c1ccccc1 [Example 53, N,β,β-trimethyl-L-phenylalanyl-N-1-{(1S,2E)-4-[(1,1′-biphenyl-4-ylmethyl)amino]-1-isopropyl-3-methyl-4-oxobut-2-enyl}-N^1,3-dimethyl-L-valinamide]
Tubulin Polym. % inhibition at 0.3 uM [1]: 11%
IC50 (KB85): 1680 nM
IC50 (KB cells): 667 nM
KBV1 % inhibition @ 3000 nM (KBV1): 29%

CN[C@H](C(=O)N[C@H](C(=O)N(C)[C@H](/C=C(\C)C(=O)N1CCN(C)CC1)C(C)C)C(C)(C)C)C(C)(C)c1ccc(C)c(C)c1 [Example 7, N,β,β,3,4-Pentamethyl-L-phenylalanyl-N^1-[(1S,2E)-1-isopropyl-3-methyl-4-(4-methylpiperazin-1-yl)-4-oxobut-2-enyl]-N^1,3-dimethyl-L-valinamide]
Tubulin Polym. % inhibition at 0.3 uM [1]: 32%
IC50 (KB85; 72 h): 68 nM
IC50 (KB cells; Homo sapiens, KB, 72 h): 47 nM
IC50 (KBV1; Homo sapiens, KB-V1, 72 h): 2190 nM

N,β,β-trimethyl-L-phenylalanyl-N^1-[(1S,2E)-1-isopropyl-4-((2S)-2-{(1R,2R)-1-methoxy-2-methyl-3-[(4R,5S)-4-methyl-2-oxo-5-phenyl-1,3-oxazolidin-3-yl]-3-oxopropyl}pyrrolidin-1-yl)-3-methyl-4-oxovalinamide [Example 32]
Tubulin Polym. % inhibition at 0.3 uM [1]: 99(2) %
IC50 (KB85): 45 nM
IC50 (KB cells): 12 nM
IC50 (KBV1): 636 nM

CN[C@H](C(=O)N[C@H](C(=O)N(C)[C@H](/C=C(\C)C(=O)N1CCC[C@H]1C(=O)O)C(C)C)C(C)(C)C)C(C)(C)C1CCCCC1 [Example 46, 3-cyclohexyl-N-methyl-L-valyl-N^1-{(1S,2E)-4-[(2S)-2-carboxypyrrolidin-1-yl]-1-isopropyl-3-methyl-4-oxobut-2-enyl}-N^1,3-dimethyl-L-valinamide]
Tubulin Polym. % inhibition at 0.3 uM [1]: 99%
IC50 (KB85; 72 h): 1720 nM
IC50 (KB cells; Homo sapiens, KB, 72 h): 450 nM
inhibition at 3 µM (KBV1; Homo sapiens): 1%

CN[C@H](C(=O)N[C@H](C(=O)N(C)[C@H](C(=O)N1CCC[C@H]1C(=O)OC)C(C)C)C(C)(C)C)C(C)(C)c1ccccc1 [Example 33, Methyl N,β,β-trimethyl-L-phenylalanyl-3-methyl-L-valyl-N-methyl-L-valyl-L-prolinate] (H-[NMePhe(β,β-Me2)][Tle][NMeV]P-OMe)
Tubulin Polym. % inhibition at 0.3 uM [1]: 19%
IC50 (KB85; 72 h): 53 nM
IC50 (KB cells; Homo sapiens, KB, 72 h): 18 nM
IC50 (KBV1; Homo sapiens, KB-V1, 72 h): 1530 nM

CN[C@H](C(=O)N[C@H](C(=O)N(C)[C@H](/C=C(\C)C(=O)c1ncc[nH]1)C(C)C)C(C)(C)C)C(C)(C)c1ccccc1 [Example 88, (2S)-N-[(1S,2E)-4-(1H-imidazol-2-yl)-1-isopropyl-3-methyl-4-oxobut-2-enyl]- -trimethyl-2-{[(2S)-3-methyl-2-(methylamino)-3-phenylbutanoyl]amino}butanamide]
Tubulin Polym. % inhibition at 0.3 uM [1]: 91%
IC50 (KB85): 1360 nM
IC50 (KB cells): 218 nM
KBV1 % inhibition @ 3000 nM (KBV1): 0%

CN[C@H](C(=O)N[C@H](C(=O)N(C)[C@H](/C=C(\C)C(=O)N1CCC[C@H]1C(=O)O)C(C)C)C(C)(C)C)C(C)(C)c1ccc(C)c(C)c1 [Example 18, N,β,β,3,4-Pentamethyl-L-phenylalanyl-N^1-{(1S,2E)-4-[(2S)-2-carboxypyrrolidin-1-yl]-1-isopropyl-3-methyl-4-oxobut-2-enyl}-N^1,3-dimethyl-L-valinamide]
Tubulin Polym. % inhibition at 0.3 uM [1]: 76%
IC50 (KB85; 72 h): 519 nM
IC50 (KB cells; Homo sapiens, KB, 72 h): 74 nM
inhibition at 3 µM (KBV1; Homo sapiens): 6%

CN[C@H](C(=O)N[C@H](C(=O)N(C)[C@H](/C=C(\C)C(=O)N1CC=C[C@H]1C(=O)O)C(C)C)C(C)(C)C)C(C)(C)c1ccccc1 [Example 48, N,β,β-trimethyl-L-phenylalanyl-N^1-{(1S,2E)-4-[(2S)-2-carboxy-2,5-dihydro-1H-pyrrol-1-yl]-1-isopropyl-3-methyl-4-oxobut-2-enyl}-N^1,3-dimethyl-L-valinamide]
Tubulin Polym. % inhibition at 0.3 uM [1]: 91(2) %
IC50 (KB85; 72 h): 184 nM
IC50 (KB cells; Homo sapiens, KB, 72 h): 58 nM
inhibition at 3 µM (KBV1; Homo sapiens): 15%

CN[C@H](C(=O)N[C@H](C(=O)N(C)[C@H](/C=C(\C)C(=O)N1CCC[C@H]1[C@H](OC)[C@@H](C)C(=O)NCCc1ccccc1)C(C)C)C(C)(C)C)C(C)(C)c1ccccc1 [Example 31, N-methyl-3-phenyl-L-valyl-N^1— [(1S,2E)-1-isopropyl-4-((2S)-2-{(1R,2R)-1-methoxy-2-methyl-3-oxo-[(2-phenethyl)amino]propyl}pyrrolidin-1-yl)-3-methyl-4-oxobut-2-enyl]-N^1,3-dimethyl-L-valinamide]
Tubulin Polym. % inhibition at 0.3 uM [1]: 69%
IC50 (KB85): 5.1 nM
IC50 (KB cells): 0.9 nM
IC50 (KBV1): 191 nM

CN[C@H](C(=O)N[C@H](C(=O)N(C)[C@H](/C=C(\C)C(=O)N1CCN(Cc2ccccc2)CC1)C(C)C)C(C)(C)C)C(C)(C)c1cccc(Cl)c1 [Example 16, 3-Chloro-N,β,β-trimethyl-L-phenylalanyl-N^1-[(1S,2E)-4-(4-benzylpiperazin-1-yl)-1-isopropyl-3-methyl-4-oxobut-2-enyl]-N^1,3-dimethyl-L-valinamide]
Tubulin Polym. % inhibition at 0.3 uM [1]: 62%
IC50 (KB85; 72 h): 60 nM
IC50 (KB cells; Homo sapiens, KB, 72 h): 39 nM
IC50 (KBV1; Homo sapiens, KB-V1, 72 h): 803 nM

CN[C@H](C(=O)N[C@H](C(=O)N(C)[C@H](/C=C/P(=O)(O)O)C(C)C)C(C)(C)C)C(C)(C)c1ccccc1 [Example 70, N,β,β-trimethyl-L-phenylalanyl-N^1-[(1S,2E)-1-isopropyl-3-phosphonoprop-2-enyl]N^1,3-dimethyl-L-valinamide]
Tubulin Polym. % inhibition at 0.3 uM [1]: 69%
inhibition at 3 µM (KB85): 0%
inhibition at 3 µM (KB cells; Homo sapiens, 72 h): 0%
inhibition at 3 µM (KBV1; Homo sapiens): 3%

CNC(C(=O)NC(C(=O)N(C)C(C=C(C)C=C(C)C(=O)O)C(C)C)C(C)(C)C)C(C)(C)c1ccccc1 (stereo not shown) [Example 79, 6-{[3,3-Dimethyl-2-(3-methyl-2-methylamino-3-phenyl-butyrylamino)-butyryl]-methyl-amino}-2,4,7-trimethyl-octa-2,4-dienoic acid]
Tubulin Polym. % inhibition at 0.5 uM [1]: 90*** %
IC50 (KB85; 72 h): 53 nM
IC50 (KB cells; Homo sapiens, KB, 72 h): 27 nM
IC50 (KBV1; Homo sapiens, KB-V1, 72 h): 1580 nM

CN[C@H](C(=O)N[C@H](C(=O)N(C)[C@H](/C=C(\C)C(=O)N1CCCC[C@H]1C(=O)O)C(C)C)C(C)(C)C)C(C)(C)c1ccccc1 [Example 50, N,β,β-trimethyl-L-phenylalanyl-N^1-{(1S,2E)-4-[(2S)-2-carboxypiperidin-1-yl]-1-isopropyl-3-methyl-4-oxobut-2-enyl}-N^1,3-dimethyl-L-valinamide]
Tubulin Polym. % inhibition at 0.3 uM [1]: 84(2) %
IC50 (KB85; 72 h): 270 nM
IC50 (KB cells; Homo sapiens, KB, 72 h): 64 nM
inhibition at 3 µM (KBV1; Homo sapiens): 9%

CN[C@H](C(=O)N[C@H](C(=O)N(C)[C@H](/C=C(\C)C(=O)c1nccs1)C(C)C)C(C)(C)C)C(C)(C)c1ccccc1 [Example 73, N,β,β-trimethyl-L-phenylalanyl-N^1-[(1S,2E)-1-isopropyl-3-methyl-4-oxo-4-(1,3-thiazol-2-yl)but-2-enyl]-N^1,3-dimethyl-L-valinamide]
Tubulin Polym. % inhibition at 0.3 uM [1]: 33%
IC50 (KB85; 72 h): 565 nM
IC50 (KB cells; Homo sapiens, KB, 72 h): 582 nM
IC50 (KBV1; Homo sapiens, KB-V1, 72 h): 1790 nM

CN[C@H](C(=O)N[C@H](C(=O)N(C)[C@H](/C=C(\C)[C@@H](O)c1ccccc1)C(C)C)C(C)(C)C)C(C)(C)c1ccccc1 [Example 75, N,β,β-trimethyl-L-phenylalanyl-N-1-[(1S,2E,4R)-4-hydroxy-1-isopropyl-3-methyl-4-phenylbut-2-enyl}-N-1,3-dimethyl-L-valinamide]
Tubulin Polym. % inhibition at 0.5 uM [1]: 83*** %
IC50 (KB85): 186 nM
IC50 (KB cells): 124 nM
IC50 (KBV1): 632 nM

CN[C@H](C(=O)N[C@H](C(=O)N(C)[C@H](/C=C(\C)C(=O)N1CCC[C@H]1C(=O)OC)C(C)C)C(C)(C)C)C(C)(C)C1CCCCC1 [Example 45, 3-cyclohexyl-N-methyl-L-valyl-N^1-{(1S,2E)-4-[(2S)-2-(methoxycarbonyl)pyrrolidin-1-yl]-1-isopropyl-3-methyl-4-oxobut-2-enyl}-N^1,3-dimethyl-L-valinamide]
Tubulin Polym. % inhibition at 0.3 uM [1]: 62(2) %
IC50 (KB85; 72 h): 16 nM
IC50 (KB cells; Homo sapiens, KB, 72 h): 3.7 nM
IC50 (KBV1; Homo sapiens, KB-V1, 72 h): 493 nM

From patent US7390910B2, “Compounds for treating tumors” (priority 2003, dated 2008)
